Laboratory results taken from US9980943B2, “Methods of treating muscular dystrophy” (BOARD OF REGENTS OF THE NEVADA SYSTEM OF HIGHER EDUCATION, …, priority 2013, dated 2018).

Experiments:
Assay type in all cases: cell-based, mouse
[1] = system: α7 integrin (LacZ reporter in α7+/LacZ myotubes); assay: Myotube α7 integrin FDG assay (Burkin assay in myotubes, 96-well); details: myotubes
[2] = system: β-galactosidase in CMV-LacZ C2C12 myotubes; assay: CMV-LacZ secondary screen in C2C12 myotubes (β-Gal stabilizing assay); details: C2C12 CMV-LacZ myotubes, fold relative to DMSO
Procedure, shortened: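 β-Gal level was the read-out, measured in a clonal C2C12 line expressing LacZ from a CMV promoter. Dose-response curves used six concentrations, 0.5 μM up to 40 μM, with duplicate points.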

[3] = system: β-galactosidase in CMV-LacZ C2C12 myoblasts; assay: CMV-LacZ secondary screen in C2C12 myoblasts (β-Gal stabilizing assay); details: CMV-LacZ C2C12 myoblasts
Procedure, shortened: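 Stable CMV-LacZ C2C12 clone; six-point curve 0.5–40 μM; duplicates.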

[4] = system: α7 integrin (LacZ reporter in α7βgal+/− myoblasts); assay: Myoblast α7+/LacZ integrin FDG assay (Burkin assay in myoblasts, 96-well); details: α7+/LacZ myoblasts, 96-well

Cc1[nH]c2ccc(F)cc2c1CCN(Cc1ccco1)C(=S)NC(C)(C)C [MLS000419286-01]
Burkin Assay in Myotubes, α7 integrin LacZ reporter signal relative to DMSO ([1]; 0.5 uM): 0.9511
Burkin Assay in Myotubes, α7 integrin LacZ reporter signal relative to DMSO ([1]; 1 uM): 0.8124
Burkin Assay in Myotubes, α7 integrin LacZ reporter signal relative to DMSO ([1]; 5 uM): 0.879
Burkin Assay in Myotubes, α7 integrin LacZ reporter signal relative to DMSO ([1]; 10 uM): 0.948
Burkin Assay in Myotubes, α7 integrin LacZ reporter signal relative to DMSO ([1]; 20 uM): 0.457
Burkin Assay in Myotubes, α7 integrin LacZ reporter signal relative to DMSO ([1]; 40 uM): 0.193
CMV-LACZ in Myotubes, signal relative to DMSO ([2]; 0.5 uM): 0.9990
CMV-LACZ in Myotubes, signal relative to DMSO ([2]; 1 uM): 1.1867
CMV-LACZ in Myotubes, signal relative to DMSO ([2]; 5 uM): 1.0268
CMV-LACZ in Myotubes, signal relative to DMSO ([2]; 10 uM): 1.1581
CMV-LACZ in Myotubes, signal relative to DMSO ([2]; 20 uM): 0.8530
CMV-LACZ in Myotubes, signal relative to DMSO ([2]; 40 uM): 0.7830
CMV-LACZ in Myoblasts (β-galactosidase activity relative to DMSO) ([3]; 0.5 uM): 0.9960
CMV-LACZ in Myoblasts (β-galactosidase activity relative to DMSO) ([3]; 1 uM): 0.7960
CMV-LACZ in Myoblasts (β-galactosidase activity relative to DMSO) ([3]; 5 uM): 0.9701
CMV-LACZ in Myoblasts (β-galactosidase activity relative to DMSO) ([3]; 10 uM): 0.8022
CMV-LACZ in Myoblasts (β-galactosidase activity relative to DMSO) ([3]; 20 uM): 0.9368
CMV-LACZ in Myoblasts (β-galactosidase activity relative to DMSO) ([3]; 40 uM): 0.6295
Burkin Assay in Myoblasts, signal relative to DMSO ([4]; 0.5 uM): 1.166
Burkin Assay in Myoblasts, signal relative to DMSO ([4]; 1 uM): 1.002
Burkin Assay in Myoblasts, signal relative to DMSO ([4]; 5 uM): 0.9174
Burkin Assay in Myoblasts, signal relative to DMSO ([4]; 10 uM): 0.8951
Burkin Assay in Myoblasts, signal relative to DMSO ([4]; 20 uM): 0.7945
Burkin Assay in Myoblasts, signal relative to DMSO ([4]; 40 uM): 0.7199

Cc1nnc(SCC(=O)c2ccc(Br)cc2)s1 [MLS000420298-01]
Burkin Assay in Myotubes, α7 integrin LacZ reporter signal relative to DMSO ([1]; 0.5 uM): 0.9538
Burkin Assay in Myotubes, α7 integrin LacZ reporter signal relative to DMSO ([1]; 1 uM): 1.0464
Burkin Assay in Myotubes, α7 integrin LacZ reporter signal relative to DMSO ([1]; 5 uM): 0.9453
Burkin Assay in Myotubes, α7 integrin LacZ reporter signal relative to DMSO ([1]; 10 uM): 0.9005
Burkin Assay in Myotubes, α7 integrin LacZ reporter signal relative to DMSO ([1]; 20 uM): 0.91
Burkin Assay in Myotubes, α7 integrin LacZ reporter signal relative to DMSO ([1]; 40 uM): 1.006
CMV-LACZ in Myotubes, signal relative to DMSO ([2]; 0.5 uM): 0.9573
CMV-LACZ in Myotubes, signal relative to DMSO ([2]; 1 uM): 0.8527
CMV-LACZ in Myotubes, signal relative to DMSO ([2]; 5 uM): 1.0338
CMV-LACZ in Myotubes, signal relative to DMSO ([2]; 10 uM): 1.2388
CMV-LACZ in Myotubes, signal relative to DMSO ([2]; 20 uM): 1.3660
CMV-LACZ in Myotubes, signal relative to DMSO ([2]; 40 uM): 1.1250
CMV-LACZ in Myoblasts (β-galactosidase activity relative to DMSO) ([3]; 0.5 uM): 1.2808
CMV-LACZ in Myoblasts (β-galactosidase activity relative to DMSO) ([3]; 1 uM): 0.9383
CMV-LACZ in Myoblasts (β-galactosidase activity relative to DMSO) ([3]; 5 uM): 0.8414
CMV-LACZ in Myoblasts (β-galactosidase activity relative to DMSO) ([3]; 10 uM): 1.0482
CMV-LACZ in Myoblasts (β-galactosidase activity relative to DMSO) ([3]; 20 uM): 0.9807
CMV-LACZ in Myoblasts (β-galactosidase activity relative to DMSO) ([3]; 40 uM): 1.1930
Burkin Assay in Myoblasts, signal relative to DMSO ([4]; 0.5 uM): 1.379
Burkin Assay in Myoblasts, signal relative to DMSO ([4]; 1 uM): 1.243
Burkin Assay in Myoblasts, signal relative to DMSO ([4]; 5 uM): 1.083
Burkin Assay in Myoblasts, signal relative to DMSO ([4]; 10 uM): 1.1
Burkin Assay in Myoblasts, signal relative to DMSO ([4]; 20 uM): 1.111
Burkin Assay in Myoblasts, signal relative to DMSO ([4]; 40 uM): 0.9235

CSc1ccc(S(=O)(=O)NCc2ccccc2)cc1 [MLS000531177-01]
Burkin Assay in Myotubes, α7 integrin LacZ reporter signal relative to DMSO ([1]; 0.5 uM): 0.8259
Burkin Assay in Myotubes, α7 integrin LacZ reporter signal relative to DMSO ([1]; 1 uM): 0.7329
Burkin Assay in Myotubes, α7 integrin LacZ reporter signal relative to DMSO ([1]; 5 uM): 1.051
Burkin Assay in Myotubes, α7 integrin LacZ reporter signal relative to DMSO ([1]; 10 uM): 1.163
Burkin Assay in Myotubes, α7 integrin LacZ reporter signal relative to DMSO ([1]; 20 uM): 0.8007
Burkin Assay in Myotubes, α7 integrin LacZ reporter signal relative to DMSO ([1]; 40 uM): 0.9005
CMV-LACZ in Myotubes, signal relative to DMSO ([2]; 0.5 uM): 1.1989
CMV-LACZ in Myotubes, signal relative to DMSO ([2]; 1 uM): 1.0411
CMV-LACZ in Myotubes, signal relative to DMSO ([2]; 5 uM): 0.8757
CMV-LACZ in Myotubes, signal relative to DMSO ([2]; 10 uM): 0.8917
CMV-LACZ in Myotubes, signal relative to DMSO ([2]; 20 uM): 0.9244
CMV-LACZ in Myotubes, signal relative to DMSO ([2]; 40 uM): 1.1522
CMV-LACZ in Myoblasts (β-galactosidase activity relative to DMSO) ([3]; 0.5 uM): 1.0785
CMV-LACZ in Myoblasts (β-galactosidase activity relative to DMSO) ([3]; 1 uM): 1.5065
CMV-LACZ in Myoblasts (β-galactosidase activity relative to DMSO) ([3]; 5 uM): 1.0150
CMV-LACZ in Myoblasts (β-galactosidase activity relative to DMSO) ([3]; 10 uM): 0.8958
CMV-LACZ in Myoblasts (β-galactosidase activity relative to DMSO) ([3]; 20 uM): 1.2952
CMV-LACZ in Myoblasts (β-galactosidase activity relative to DMSO) ([3]; 40 uM): 0.9422
Burkin Assay in Myoblasts, signal relative to DMSO ([4]; 0.5 uM): 0.8826
Burkin Assay in Myoblasts, signal relative to DMSO ([4]; 1 uM): 0.923
Burkin Assay in Myoblasts, signal relative to DMSO ([4]; 5 uM): 1.067
Burkin Assay in Myoblasts, signal relative to DMSO ([4]; 10 uM): 1.625
Burkin Assay in Myoblasts, signal relative to DMSO ([4]; 20 uM): 1.014
Burkin Assay in Myoblasts, signal relative to DMSO ([4]; 40 uM): 0.8008
